Assay results: ChEMBL document CHEMBL1201862, “PubChem BioAssay data set” (2004)
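Exposure lasted 48 hours, with cells grown in 96-well plates and compounds tested at five concentrations. Abbreviation: GI50, concentration required for 50% inhibition of growth.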 Calls of active or inactive are those of the source. Cut-off read from the data, not from the text of the source: active = GI50 up to about 1.1 µM and inactive = higher.

Assays:
Assay in all cases: NCI-60 cell line screen, 48 h
SK-MEL-5 = test system: SK-MEL-5
RXF 393 = test system: RXF 393
SNB-19 = test system: SNB-19
Malme-3M = test system: Malme-3M
RPMI-8226 = test system: RPMI-8226
HCT-15 = test system: HCT-15
SNB-75 = test system: SNB-75
NCI-H522 = test system: NCI-H522
CAKI-1 = test system: CAKI-1
SK-OV-3 = test system: SK-OV-3
HCC 2998 = test system: HCC 2998
HOP-62 = test system: HOP-62
SN12C = test system: SN12C
CCRF-CEM = test system: CCRF-CEM
U-251 = test system: U-251
EKVX = test system: EKVX
UACC-257 = test system: UACC-257
HT-29 = test system: HT-29

| SMILES | GI50 (SK-MEL-5) | GI50 (RXF 393) | GI50 (SNB-19) | GI50 (Malme-3M) | GI50 (RPMI-8226) | GI50 (HCT-15) | GI50 (SNB-75) | GI50 (NCI-H522) | GI50 (CAKI-1) | GI50 (SK-OV-3) | GI50 (HCC 2998) | GI50 (HOP-62) | GI50 (SN12C) | GI50 (CCRF-CEM) | GI50 (U-251) | GI50 (EKVX) | GI50 (UACC-257) | GI50 (HT-29) |
| --- | --- | --- | --- | --- | --- | --- | --- | --- | --- | --- | --- | --- | --- | --- | --- | --- | --- | --- |
| O=C1OC(c2ccc(Cl)c3ccccc23)c2ccccc21 (stereo unspecified) | > 100 µM (inactive) | 26.1 µM (inactive) | > 100 µM (inactive) | > 100 µM (inactive) | > 100 µM (inactive) | 90.4 µM | 6.07 µM (inactive) | > 100 µM (inactive) | 75.5 µM (inactive) | > 100 µM (inactive) | 91.2 µM (inactive) | > 100 µM (inactive) | > 100 µM (inactive) | 91.6 µM (inactive) | > 100 µM (inactive) | > 100 µM (inactive) | > 100 µM (inactive) | 55.3 µM (inactive) |
| CC1=C2C(=O)C(C)(C)C=C2C(=O)[C@](C)(O)C12CC2 [DEHYDROILLUDIN M] | 0.296 µM (active) | 0.593 µM (active) | > 1 µM (active) | 0.634 µM (active) | > 1 µM (active) | 0.468 µM | > 1 µM (active) | 0.245 µM (active) | > 1 µM (active) | > 1 µM (active) | > 0.815 µM (active) | > 1 µM (active) | > 1 µM (active) | > 1 µM (active) | 0.484 µM (active) | > 1 µM (active) | 0.745 µM (active) | 0.248 µM (active) |
| N#CC(C(=O)/C(=N\NC(N)=O)C(C#N)c1ccccc1)c1ccccc1 (stereo unspecified) |  | > 100 µM (inactive) | > 100 µM (inactive) | > 100 µM (inactive) | > 100 µM (inactive) | > 100 µM | > 100 µM (inactive) | > 100 µM (inactive) | > 100 µM (inactive) | > 100 µM (inactive) | > 100 µM (inactive) | > 100 µM (inactive) | > 100 µM (inactive) | > 100 µM (inactive) | > 100 µM (inactive) | > 100 µM (inactive) | > 100 µM (inactive) | > 100 µM (inactive) |
| N#CCCN(CCC#N)c1ccc(/C=C(/NC(=O)c2cc([N+](=O)[O-])ccc2Cl)C(=O)N=[N+]=[N-])cc1 | > 100 µM (inactive) | > 100 µM (inactive) | > 100 µM (inactive) | > 100 µM (inactive) | > 100 µM (inactive) | > 100 µM | > 100 µM (inactive) | > 100 µM (inactive) | > 100 µM (inactive) | > 100 µM (inactive) | > 100 µM (inactive) | > 100 µM (inactive) | > 100 µM (inactive) | > 100 µM (inactive) | > 100 µM (inactive) | > 100 µM (inactive) | > 100 µM (inactive) | > 100 µM (inactive) |
| COc1cc2c(cc1OC)C(CC(=O)NN=C(C)C)NCC2 (stereo unspecified) | > 100 µM (inactive) | > 100 µM (inactive) | > 100 µM (inactive) | > 100 µM (inactive) | > 100 µM (inactive) | > 100 µM | > 100 µM (inactive) | > 100 µM (inactive) | > 100 µM (inactive) | > 100 µM (inactive) | > 100 µM (inactive) | > 100 µM (inactive) | > 100 µM (inactive) | > 100 µM (inactive) | > 100 µM (inactive) | > 100 µM (inactive) | > 100 µM (inactive) | > 100 µM (inactive) |
| O=S(=O)(c1ccccc1)C1CN2OC1(S(=O)(=O)c1ccccc1)CC21CCCCC1 (stereo unspecified) |  | 77.1 µM (inactive) | > 100 µM (inactive) | > 100 µM (inactive) | 86.1 µM (inactive) | > 100 µM | > 100 µM (inactive) | 51.5 µM (inactive) | 73.3 µM (inactive) | > 100 µM (inactive) | > 100 µM (inactive) | > 100 µM (inactive) | > 100 µM (inactive) | > 100 µM (inactive) | > 100 µM (inactive) | > 100 µM (inactive) | > 100 µM (inactive) | > 100 µM (inactive) |
| CC(C)N(C(C)C)P(OCCC#N)OC1CC(n2cnc3c(=O)[nH]cnc32)OC1COC(=O)NCCCCCCNC(=O)OC(C)(C)c1ccc(-c2ccccc2)cc1 (stereo unspecified) | 24.8 µM (inactive) | 27.7 µM (inactive) | 21.7 µM (inactive) | 32.2 µM (inactive) | 25.7 µM (inactive) | 22.6 µM | 24.3 µM (inactive) | 15.6 µM (inactive) | 39.4 µM (inactive) | 39.4 µM (inactive) | 25.5 µM (inactive) | 23.4 µM (inactive) | 23.7 µM (inactive) | 18.5 µM (inactive) | 21.7 µM (inactive) | > 100 µM (inactive) | 15.2 µM (inactive) | 43.2 µM (inactive) |
| CC(C)(C)C1CCC(CI)(N=[N+]=[N-])CC1 (stereo unspecified) | > 100 µM (inactive) | > 100 µM (inactive) | > 100 µM (inactive) | > 100 µM (inactive) | 79.1 µM (inactive) | > 100 µM | > 100 µM (inactive) | > 100 µM (inactive) | > 100 µM (inactive) | > 100 µM (inactive) | > 100 µM (inactive) | > 100 µM (inactive) | > 100 µM (inactive) | > 100 µM (inactive) | > 100 µM (inactive) | > 100 µM (inactive) | > 100 µM (inactive) | > 100 µM (inactive) |
| O=C1C2C(C(=O)N1c1ccccc1)C1(Br)c3ccccc3C2(Br)C2C(=O)N(c3ccccc3)C(=O)C21 (stereo unspecified) | > 31.6 µM (inactive) | 11 µM (inactive) | > 31.6 µM (inactive) | 30.1 µM (inactive) | 10.6 µM (inactive) | 23.8 µM | 13 µM (inactive) | > 10 µM (inactive) | 64 µM (inactive) | > 100 µM (inactive) | 15 µM (inactive) | > 10 µM (inactive) | > 31.6 µM (inactive) | 26.6 µM (inactive) | > 31.6 µM (inactive) | > 31.6 µM (inactive) | > 31.6 µM (inactive) | 27.8 µM (inactive) |
| CCCCCCCCCC1CC(=O)OC23CCCC(=O)C12O3 (stereo unspecified) | 74.5 µM (inactive) | > 100 µM (inactive) | > 100 µM (inactive) | > 100 µM (inactive) | > 100 µM (inactive) | 84.9 µM | > 100 µM (inactive) | 94.6 µM (inactive) | > 100 µM (inactive) | > 100 µM (inactive) | 56.8 µM (inactive) | > 100 µM (inactive) | > 100 µM (inactive) | > 100 µM (inactive) | 97.1 µM (inactive) | > 100 µM (inactive) | > 100 µM (inactive) | > 100 µM (inactive) |
| COc1ccccc1NC(=O)CC(=O)n1nc(C)c(/N=N/c2ccccc2F)c1C | > 100 µM (inactive) | > 57.3 µM (inactive) | > 76 µM (inactive) | > 10 µM (inactive) | > 100 µM (inactive) | > 100 µM | 9.46 µM (inactive) | > 100 µM (inactive) | > 100 µM (inactive) | 31.3 µM (inactive) | > 100 µM (inactive) | 32.6 µM (inactive) | > 100 µM (inactive) | > 10 µM (inactive) | 58.6 µM (inactive) | > 100 µM (inactive) | > 100 µM (inactive) | > 100 µM (inactive) |
